Assay results reported in patent publication US11857322B2, “Systems and methods for screening, diagnosing, and stratifying patients” (BlackThorn Therapeutics, Inc., priority 2018, dated 2024).

Tests used:
[1] = system: patients with major depressive disorder; assay: Randomized, placebo controlled study of BTRX-246040 in patients with major depressive disorder; assay type: in vivo, human
Description: The disclosed systems and methods were used in a randomized, placebo controlled study to identify patients that would respond to BTRX-246040 (LY2940094)—a nociceptin receptor antagonist (“NOPA”). Details about the chemical structure and other properties, uses and indications for BTRX-246040 are disclosed in J M Witkin et al., “Therapeutic Approaches for NOP Receptor Antagonists in Neurobehavioral Disorders: Clinical Studies in Majority Depressive Disorder and Alcohol Use Disorder with BTRX-246040,” the content of which is incorporated herein by reference in its entirety. Additionally, BTRX-246040, it's uses, indications, treatments, and forms are disclosed in U.S. Pat. No. 8,232,289 filed Nov. 10, 2010, titled “Spiropiperidine Compounds as ORL-1 Receptor Antagonists” and U.S. Publication NO. 2012/0214784 filed Aug. 23, 2012 titled “Spiropiperidine Compounds as ORL-1 Receptor Antagonists,” both of which are incorporated by reference in their entirety herein.
During the study disclosed herein, BTRX-246040 was administered once daily in patients with major depressive disorder without anhedonia. The study included 73 patients with 38 randomized to BTRX-246040 and 35 randomized to the placebo. The BTRX group had 17 responders and the placebo had 15 responders. The study included the following methods: • 28 days screening period • Eight (8 (weeks of active treatment • Off-drug follow up after one to two weeks • 104 MDD patients randomized • 1:1 ratio stratified by SHAPS≤4 and SHAPS>4 • dosage: 40 mg first week, then 80 mg onwards when tolerated
The following are known clinical questionnaires that were utilized at the indicated time points above: • Montgomery-Asberg Depression Scale (MADRS) • Hamilton Anxiety Scale (HAMA) • Hospital Anxiety and Depression Scale (HADS-A/HADS-D) • Snaith-Hamilton Pleasure Scale (SHAPS) • Dimensional Anhedonia Rating Scale (DARS) Tasks
The primary outcome of the study utilized was the clinical scale MADRS total at week 8. […]

[2] = system: patients with mood and anxiety spectrum disorders; assay: FAST-MAS phase 2a study of CERC-501 in mood and anxiety spectrum disorders; assay type: in vivo, human
Description: In another example, during a phase 2a study known as FAST-MAS was run to evaluate the Kappa Opioid Receptor (“KOR”) as a target for the treatment of mood and anxiety spectrum disorders. Additionally, CERC-501, it's uses, indications, treatments, and forms are disclosed in PCT Publication No. WO2018170492, filed Mar. 16, 2018, titled “Kappa Opioid Receptor Antagonists and Products and Methods Related Thereto” which is incorporated by reference herin in its entirety. During the trial, CERC-501 was tested to see whether it engaged key neural circuitry related to the hedonic response.
The FAST-MAS trial included a 30-day screening period, followed by 8 weeks of active treatment, follow up 12 weeks of off-drug follow up after baseline. The study included […] (of 163 enrolled) to include 45 on CERC-501 and 44 to the Placebo. The patients received […] daily for the 8 weeks of active treatment.
Patients were eligible for enrollment if they met both: • (i) DSM-IV TR critiera for at least one of: • MDD • Bipolar I or II Depressed • GAD • Social Phobia • Panic Disorder • PTSD; and • (ii) SHAPS score of ≥20
Furthermore, the primary outcome measures were the following measures included in Table 7 below. These include the fMRI, the SHAPS scale, and the PRT task as disclosed herein

Row | SMILES | number of responders ([1]; 38 patients randomized to BTRX-246040, once daily, 40 mg first week then 80 mg, 8 weeks, high responder = MADRS decrease by 50% from baseline) | group level treatment effects versus placebo ([1]; across all subjects, MADRS total at week 8, FIGS. 15A-15B) | change on the MADRS scale in patients identified by the classifiers as higher responders ([1]; after the 8-week study, subgroup chosen by classifiers from baseline data, FIGS. 16A-16B) | impact on patients identified using the Bayesian Decision Lists versus patients generally that received active treatment ([2]; subgroup identified by rule list, FIGS. 26A-26B) | outcome and treatment response ([2]; whole patient cohort, 8 weeks of active treatment)
1 | Cc1nn(-c2ncccc2CO)cc1CN1CCC2(CC1)OCC(F)(F)c1cc(Cl)sc12 [BTRX-246040] | 17 | did as well as the placebo | greater than 5 point |  | 
2 | Cc1cc(C)cc([C@@H]2CCCN2Cc2ccc(Oc3ccc(C(N)=O)cc3F)cc2)c1 [CERC-501] |  |  |  | greater on the patients identified using the Bayesian Decision Lists than the impact generally on the patients that received the active treatment | illustrated a difference in the outcome and treatment response
